We go through one molecule from patent publication US20240269112A1 (priority 2020, published 2024).

The test system of data set [1] is Covid-19 patients admitted to the ICU. Description: IV melatonin in Covid-19 ICU patients: systemic inflammatory response (ferritin, D-dimer, CRP, IL-6, lymphocytes). It counts as in vivo, human. As for the experimental part:
(§1) To conduct this study, all patients received standard treatment according to institutional protocols. Furthermore, patients were assigned randomly in a 2:1 ratio to receive: • Experimental group (12 patients): 7 days of 5 mg/kg body weight/day of intravenous melatonin every 6 hours. Daily maximum dose of 500 mg a day. • Control group (6 patients): 7 days of 5 mg/kg body weight/day of placebo with identical appearance through the intravenous route every 6 hours.
(§2) After 3 days of treatment, 3 intensive care physicians evaluated each participant and decided whether or not they wished to complete the treatment based on their clinical assessment: • If there were objective or subjective signs of improvement or non-worsening of general clinical condition or respiratory failure, with no observation of inflammatory condition or multiorgan failure, the participant continued treatment until completion. • If an adverse effect or clinical deterioration which can be objectively or subjectively attributed to the study drug was observed, treatment was discontinued.
(§3) The injectable composition was prepared according to the criteria established in Example 1 by adjusting the amounts to 5 mg/kg body weight/day of intravenous melatonin every 6 hours.
(§4) • To evaluate whether iv treatment with melatonin reduced the duration of ICU (intensive care unit) admission. • To evaluate whether iv treatment with melatonin reduced the duration of mechanical ventilation (MV). • To evaluate whether iv treatment with melatonin was associated with an increase in MV-free days. • To evaluate whether iv treatment with melatonin is associated with a reduction in systemic inflammatory response, defined by the levels of ferritin, D-dimer, C-reactive protein (CRP) or procalcitonin (PCT) and IL-6. 1. Evaluating Whether iv Treatment with Melatonin Reduced the Duration of ICU (Intensive Care Unit) Admission (See FIG. 7)

Data set [2] has as its system septic patients who have undergone abdominal surgery. The conditions noted are these: human, in vivo.
Data set [3] has as its system Covid-19 patients admitted to the ICU. Briefly: Efficacy and safety of IV melatonin in Covid-19 patients admitted to the ICU: hospital/ICU stay, mechanical ventilation, adverse reactions. It is filed as in vivo, human. As for the experimental part: as §1, §2, §3, §4
Data set [4] concerns septic patients who have undergone abdominal surgery. Particulars: human, in vivo. An excerpt: The following parameters related to kidney function have been determined: • Creatinine is a waste molecule generated from muscle metabolism. Creatinine originates from creatine, a very important molecule for energy production in the muscle. About 2% of creatine in the body is converted into creatinine every day. Creatinine is transported from muscles to the kidney by blood. The kidneys filter most of the creatinine and eliminate it in the urine. Determination of serum creatinine is a test which provides a fairly reliable indication of the state of kidney function. • Urea, the determination of which is the most widely used test to assess kidney function. Urea is the end product of protein and amino acid metabolism. In protein degradation, proteins are split into amino acids and deaminated. Urea is synthesized in the liver with the ammonia that is formed. This is the most important pathway for degrading excess nitrogen in the human body.
The source holds these as a separate data set.

The test system is the same in data set [5]. The conditions noted are these: human, in vivo. An excerpt: The enzyme lactate dehydrogenase (or also called “lactic acid dehydrogenase” (LDH)), an enzyme which is found in almost all the tissues in the human body, has been determined to detect injuries in tissues such as the liver. It plays an important role in cellular respiration (the process in which glucose from foods is converted into energy which can be used by cells).
Although LDH is abundant in tissue cells, the levels in blood are generally low. However, when tissues are damaged as a result of an injury or a disease, they release more LDH into the blood stream. This increase in the amount of LDH in the blood stream is often caused by the following conditions: liver diseases, heart attacks, anemia, muscle trauma, bone fracture, cancer, infections such as meningitis, encephalitis, or HIV.
The source holds these as a separate data set.

The test system is the same in data set [6]. Description: Clinical study with septic patients: blood parameters (leukocytes, red blood cells, hemoglobin, hematocrit, neutrophils, lymphocytes, platelets). The conditions noted are these: regardless of time, p=0.007.
Description: The following blood parameters from these samples were analyzed for each of the participating patients: the number of leukocytes, the number of red blood cells, hemoglobin, hematocrit, percentage of neutrophils, percentage of lymphocytes, and the number of platelets.
[7] abbreviates: 5 mg/kg/day iv every 6 hours, 7 days.

Consider `COc1ccc2[nH]cc(CCNC(C)=O)c2c1` [melatonin, N-acetyl-5-methoxytryptamine], for which the Inflammatory response entry in data set [1] (5 mg/kg/day for 7 days) is “improvement in the inflammatory response”. Also, the “Levels of dimer-D (D-dimer)” value in data set [1] (during the days of treatment, FIG. 2) is listed as “reduction”. The Levels of ferritin entry in data set [1] (during the days of treatment, FIG. 3) is “reduction”. Moreover, the “Levels of CRP” value in data set [1] (during the days of treatment, FIG. 4) is on record as “reduction”. Moreover, the IL6 entry in data set [1] (during the days of treatment, FIG. 5) was “reduction”. In addition, in data set [1] (during treatment), the Bilirubin entry was “has to drop” and the Neutrophils entry was “tendency of neutrophils decreasing”. The “Lymphocytes with respect to placebo” value in data set [1] (during treatment, FIG. 6) is reported as “increase”. In data set [2], the “ALP (alkaline phosphatase): average values between groups” value is reported as “not statistically significant”, the “GGT: average values between groups” value is “not statistically significant”, the “GOT: differences in average values between groups” value is on record as “not statistically significant” and the “GPT: average values between groups” value is on record as “not statistically significant”. Moreover, in data set [3] (5 mg/kg/day for 7 days), the Adverse reactions result is “did not cause any adverse reactions”, the “Increase in the number of days without mechanical ventilation compared to placebo” value is listed as 16 days and the “Reduction in invasive mechanical ventilation compared to placebo” value came out at 9 days. In data set [3] (setting [7]), the “Days without mechanical ventilation during hospitalization (MV-free days)” value turned out to be 40 days, the “Duration of ICU admission compared to placebo” value is reported as “no significant difference”, the “Duration of invasive mechanical ventilation” value came to 21 days and the “Duration of non-invasive mechanical ventilation” value worked out at 16.5 days. Further, the “Reduction in hospital stay compared to placebo” value in data set [3] (setting [7]) stood at 15 days. In data set [4], the “Levels of creatinine compared between groups A and B in each time point” value is “no statistically significant differences”; the “Levels of urea compared between the two groups in each time point” value is reported as “higher in group B (placebo)”. Moreover, the “Levels of LDH compared between the two groups in each time point” value in data set [5] is given as “higher in group A (melatonin)”. Moreover, the “Neutrophil average, group A compared with group B (placebo)” value in data set [6] was “higher in group B (placebo) than in group A (melatonin)”.
